In patent publication US20070232601A1, “Vla-4 Inhibitor” (priority 2004, published 2007):

Molecular target: T1, hα4 and β1 integrins (VLA-4) (Homo sapiens, UniProt P05556+P13612)
T1 construct: expressed in transfected cells; host or cells: CHO cells
Experiment: In vitro evaluation: inhibition of binding of CHO cells expressing hα4 and β1 integrins to Eu3+-hVCAM-1 D1D7-IgG
Settings: ligand Eu3+-hVCAM-1 D1D7-IgG 2 nM, Ki calculated from IC50
Method: CHO cells which were forced to be expressed by transduction of hα4 and β1 integrins are seeded (3×10^4 cells/100 μl/well) on a Costar 3599 plate, and cultured for 2 days. A medium is washed with a buffer A* two times, and Eu^3+-hVCAM-1 D1D7-IgG which was diluted with an assay buffer A** to 2 nM is added at 50 μl/well. A test substance which was diluted with 2% DMSO-assay buffer (in the presence or the absence of 6% human serum albumin) is added at 50 μl/well (A solution which was separately diluted is added to a well in which Scatchard analysis is performed), this is stirred with a plate mixer for 5 minutes, and allowed to stand at room temperature for 1 hour. Thereafter, this is washed with a buffer A four times, a potentiating reagent (manufactured by DELFIA) is added at 100 μl/well, this is shaken for 5 minutes using a plate mixer, and a fluorescence intensity is measured with a time-resolved fluorometer (DELFIA Wallac). IC50 (concentration at which binding of CHO cell and Eu^3+-hVCAM-1 D1D7-IgG is inhibited by 50%) of a test substance is obtained from an integration rate obtained from a calculation equation: [(FT−FNS)−(FI−FNS)]/[(FT−FNS)]×100, wherein FT indicates a fluorescence intensity of a well not containing a test substance, FNS indicates a fluorescence intensity of a well not containing a test substance and hVCAM-1 D1D7-IgG, and FI indicates a fluorescence intensity containing a test substance. A Kd value showing strength of binding and Bmax (maximum binding amount) were presumed in a range of 0.06 to 20 nM according to the Scachard analysis method. [formula]
A Ki value was calculated according to the above equation ([L] is ligand concentration)
[* buffer A: 25 mM HEPES (pH 7.5), 150 mM NaCl, 1 mM Ca^2+, 1 mM Mg^2+, 4 mM Mn^2+; ** assay buffer: 25 mM HEPES (pH 7.5), 150 mM NaCl, 1 mM Ca^2+, 1 mM Mg^2+, 4 mM Mn^2+, 0.1% BSA, 20 μM DTPA, with/without 6% ALBUMIN, HUMAN SERUM (C/NA-1653, SIGMA)]

T1 sequence (P13612 34-1032): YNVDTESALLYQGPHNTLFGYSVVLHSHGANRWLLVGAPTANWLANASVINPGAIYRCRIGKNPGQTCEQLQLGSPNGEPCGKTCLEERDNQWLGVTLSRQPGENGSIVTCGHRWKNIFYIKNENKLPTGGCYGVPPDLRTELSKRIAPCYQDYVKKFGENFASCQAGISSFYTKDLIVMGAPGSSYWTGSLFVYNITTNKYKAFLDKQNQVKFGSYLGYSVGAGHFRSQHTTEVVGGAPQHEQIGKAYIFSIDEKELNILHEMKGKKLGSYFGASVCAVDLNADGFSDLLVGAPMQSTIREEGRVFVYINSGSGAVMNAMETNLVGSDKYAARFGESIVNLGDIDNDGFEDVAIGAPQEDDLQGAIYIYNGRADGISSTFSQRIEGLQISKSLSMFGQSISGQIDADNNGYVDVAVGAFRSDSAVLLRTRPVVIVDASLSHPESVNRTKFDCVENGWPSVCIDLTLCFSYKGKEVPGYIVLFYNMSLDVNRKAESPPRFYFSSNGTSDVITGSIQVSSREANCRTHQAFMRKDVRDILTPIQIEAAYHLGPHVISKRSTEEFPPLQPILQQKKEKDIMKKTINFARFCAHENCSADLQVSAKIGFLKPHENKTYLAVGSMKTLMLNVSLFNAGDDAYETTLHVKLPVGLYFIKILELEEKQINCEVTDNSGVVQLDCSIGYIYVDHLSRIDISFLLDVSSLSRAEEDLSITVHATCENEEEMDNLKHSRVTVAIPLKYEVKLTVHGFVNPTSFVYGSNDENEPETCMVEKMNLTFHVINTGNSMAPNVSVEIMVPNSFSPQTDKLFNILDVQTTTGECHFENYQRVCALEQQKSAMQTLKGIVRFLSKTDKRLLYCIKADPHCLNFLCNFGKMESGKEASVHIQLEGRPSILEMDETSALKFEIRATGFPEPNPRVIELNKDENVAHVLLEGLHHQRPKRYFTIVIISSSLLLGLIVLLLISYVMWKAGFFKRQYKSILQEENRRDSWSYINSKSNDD
T1 sequence (P05556 21-798): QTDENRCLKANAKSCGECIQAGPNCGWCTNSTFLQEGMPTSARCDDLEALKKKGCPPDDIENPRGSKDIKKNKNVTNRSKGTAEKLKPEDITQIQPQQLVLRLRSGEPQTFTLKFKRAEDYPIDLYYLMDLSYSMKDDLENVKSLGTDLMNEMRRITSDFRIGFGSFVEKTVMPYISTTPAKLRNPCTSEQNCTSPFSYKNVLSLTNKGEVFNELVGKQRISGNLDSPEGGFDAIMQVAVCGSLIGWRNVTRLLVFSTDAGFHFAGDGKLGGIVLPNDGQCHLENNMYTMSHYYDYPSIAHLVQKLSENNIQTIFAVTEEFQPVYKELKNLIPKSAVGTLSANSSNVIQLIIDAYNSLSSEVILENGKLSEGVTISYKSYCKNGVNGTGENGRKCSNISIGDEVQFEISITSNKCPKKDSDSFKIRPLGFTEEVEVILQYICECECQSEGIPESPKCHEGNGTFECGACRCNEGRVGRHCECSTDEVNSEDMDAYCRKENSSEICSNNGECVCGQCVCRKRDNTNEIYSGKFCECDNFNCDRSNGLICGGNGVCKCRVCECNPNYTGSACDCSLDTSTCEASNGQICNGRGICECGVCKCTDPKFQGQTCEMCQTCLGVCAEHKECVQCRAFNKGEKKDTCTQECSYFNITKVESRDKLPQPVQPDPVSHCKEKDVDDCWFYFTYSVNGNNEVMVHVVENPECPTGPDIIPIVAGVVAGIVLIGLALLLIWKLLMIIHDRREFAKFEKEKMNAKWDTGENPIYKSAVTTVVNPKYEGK

With `O=C(O)CCc1cnc([C@@H]2C[C@H](OC3CCC3)CN2C(=O)Cc2cc(Cl)c(NC(=O)c3coc4ccccc34)cc2Cl)s1` [Example 42, 3-[2-[1-[4-[(1-Benzofuran-3-ylcarbonyl)amino]-2,5-dichlorophenylacetyl]-(4S)-cyclobutoxy-(2S)-pyrrolidinyl]-5-thiazolyl]propionic acid] as the compound, how does the Ki read?
Its Ki is 7 nM.

`COc1ccccc1Nc1nc2ccc(CC(=O)N3C[C@@H](F)C[C@H]3c3ncc(CCC(=O)O)s3)c(F)c2o1` [Example 23, 3-[2-[1-[[7-Fluoro-2-(2-methoxyphenylamino)-1,3-benzoxazol-6-yl]acetyl]-(4S)-fluoro-(2S)-pyrrolidinyl]-5-thiazolyl]propionic acid] was tested. Which Ki did it give?
The Ki was 0.35 nM.

For `CC(C)O[C@H]1C[C@@H](c2ncc(CCC(=O)O)s2)N(C(=O)Cc2cc(Cl)c(NC(=O)c3coc4ccccc34)cc2Cl)C1` [Example 37, 3-[2-[1-[4-[(1-Benzofuran-3-ylcarbonyl)amino]-2,5-dichlorophenylacetyl]-(4S)-isopropoxy-(2S)-pyrrolidinyl]5-thiazolyl]propionic acid], which Ki is on record?
Its Ki is 5.9 nM.

`CCO[C@H]1CCN(C(=O)Cc2cc(Cl)c(NC(=O)c3coc4ccccc34)cc2Cl)[C@@H]1c1ncc(CCC(=O)O)o1` [Example 102] was tested. Which Ki did it give?
The Ki was 17 nM.

With `COC[C@@]1(c2ncc(CCC(=O)O)s2)C[C@H](OC)CN1C(=O)Cc1cc(Cl)c(NC(=O)c2cn(C)c3ccccc23)cc1Cl` [Example 133, 3-{2-[(2R,4S)-1-[2-(2,5-dichloro-4-{[(1-methyl-1H-indol-3-yl)carbonyl]amino}phenyl)acetyl]-4-methoxy-2-(methoxymethyl)pyrrolidinyl]thiazol-5-yl}propionic acid] as the compound, how does the Ki read?
Its Ki is 4.5 nM.

Which Ki does the source give for `CCO[C@H]1CCN(C(=O)Cc2ccc3nc(Nc4ccccc4OC)oc3c2)[C@@H]1c1ncc(CCC(=O)O)o1` [Example 106, 3-[2-[1-[[2-(2-Methoxyphenyl)amino-6-benzoxazolyl]acetyl]-(3S)-ethoxy-(2S)-pyrrolidinyl]-5-oxazolyl]propionic acid] here?
The Ki was 21 nM.

With `CCO[C@H]1CCN(C(=O)Cc2cc(Cl)c(NC(=O)c3cn(C)c4ccccc34)cc2F)[C@@H]1c1ncc(CCC(=O)O)s1` [Example 91, 3-[2-[1-[[5-Chloro-2-fluoro-4-(1-methyl-3-indolylcarbonylamino)phenyl]acetyl]-(3S)-ethoxy-(2S)-pyrrolidinyl]-5-thiazolyl]propionic acid] as the compound, how does the Ki read?
The Ki was 4.1 nM.

`CCOC[C@@H]1CC[C@@H](c2ncc(CCC(=O)O)s2)N1C(=O)Cc1cc(Cl)c(NC(=O)c2coc3ccccc23)cc1F` [Example 50, 3-[2-[1-[4-[(1-Benzofuran-3-ylcarbonyl)amino]-5-chloro-2-fluorophenylacetyl]-(5S)-ethoxymethyl-2(2S)-pyrrolidinyl)-5-thiazolyl]propionic acid] was tested. Which Ki did it give?
Its Ki is 51 nM.

Which Ki does the source give for `CCOC[C@@H]1CC[C@@H](c2ncc(CCC(=O)O)s2)N1C(=O)Cc1cc(Cl)c(NC(=O)c2csc3ccccc23)cc1F` [Example 49, 3-[2-[1-[4-[(3-Benzo[b]thienylcarbonyl)amino]-5-chloro-2-fluorophenylacetyl]-(5S)-ethoxymethyl-(2S)-pyrrolidinyl]-5-thiazolyl]propionic acid] here?
The Ki was 22 nM.

For `O=C(O)CCc1cnc([C@@H]2[C@@H](O)CCN2C(=O)Cc2ccc(Nc3nc4ccccc4o3)c(Cl)c2)s1` [Example 116, 3-[2-[1-[4-(2-Benzoxazolyl)amino-3-chlorophenyl]acetyl-(3S)-hydroxy-(2S)-pyrrolidinyl]-5-thiazolyl]propionic acid], which Ki is on record?
Its Ki is 40 nM.

`CCO[C@H]1CCN(C(=O)Cc2ccc3nc(Nc4cc(F)ccc4C)oc3c2F)[C@@H]1c1ncc(CCC(=O)O)o1` [Example 103, 3-[2-[1-[[7-Fluoro-2-(5-fluoro-2-methylphenyl)amino-6-benzoxazolyl]acetyl]-(3S)-ethoxy-(2S)-pyrrolidinyl]-5-oxazolyl]propionic acid] was tested. Which Ki did it give?
Its Ki is 2.6 nM.

With `CO[C@H]1C[C@@H](c2ncc(CCC(=O)O)o2)N(C(=O)Cc2cc(Cl)c(NC(=O)c3csc4ccccc34)cc2F)C1` [Example 15, 3-[2-[1-[[4-[(3-Benzo[b]thienylcarbonyl)amino]-5-chloro-2-fluorophenyl]acetyl]-(4S)-methoxy-(2S)-pyrrolidinyl]-5-oxazolyl]propionic acid] as the compound, how does the Ki read?
Its Ki is 4.5 nM.

How did the Ki turn out when `CCO[C@H]1CCN(C(=O)Cc2cc(Cl)c(NC(=O)c3csc4ccccc34)cc2Cl)[C@@H]1c1ncc(CCC(=O)O)o1` [Example 100] was run?
The Ki was 7.7 nM.

With `CON(C)[C@H]1C[C@@H](c2ncc(CCC(=O)O)s2)N(C(=O)Cc2cc(Cl)c(NC(=O)c3coc4ccccc34)cc2F)C1` [Example 131, 3-[2-[1-[4-(3-Benzo[b]furanylcarbonylamino)-5-chloro-2-fluorophenylacetyl]-(4S)—N,O-dimethylhydroxylamino-(2S)-pyrrolidinyl]-5-thiazolyl]propionic acid] as the compound, how does the Ki read?
Its Ki is 5.9 nM.

How did the Ki turn out when `CCO[C@H]1CCN(C(=O)Cc2cc(Cl)c(NC(=O)c3coc4ccccc34)cc2Cl)[C@@H]1c1ncc(CCC(=O)O)s1` [Example 96] was run?
The Ki was 6.4 nM.

With `CCO[C@H]1CCN(C(=O)Cc2cc(Cl)c(NC(=O)c3csc4ccccc34)cc2Cl)[C@@H]1c1ncc(CCC(=O)O)s1` [Example 94] as the compound, how does the Ki read?
Its Ki is 6.2 nM.

For `CO[C@@H]1C[C@@H](c2ncc(CCC(=O)O)s2)N(C(=O)Cc2cc(Cl)c(Nc3nc4ccccc4o3)cc2Cl)C1` [Example 124, 3-[2-[1-[4-(2-Benzoxazolyl)amino-2,5-dichlorophenyl]acetyl-(4R)-methoxy-(2S)-pyrrolidinyl]-5-thiazolyl]propionic acid], which Ki is on record?
Its Ki is 76 nM.

For `Cn1cc(C(=O)Nc2cc(Cl)c(CC(=O)N3C[C@@H](F)C[C@H]3c3ncc(CCC(=O)O)s3)cc2Cl)c2ccccc21` [Example 18, 3-[2-[1-[2,5-Dichloro-4-(1-methyl-3-indolylcarbonylamino)phenylacetyl]-(4S)-fluoro-(2S)-pyrrolidinyl]-5-thiazolyl]propionic acid], which Ki is on record?
Its Ki is 1.1 nM.

`CCO[C@H]1CCN(C(=O)Cc2cc(Cl)c(NC(=O)c3cn(C)c4ccccc34)cc2Cl)[C@@H]1c1ncc(CCC(=O)O)o1` [Example 98, 3-[2-[1-[[2,5-Dichloro-4-(1-methyl-3-indolylcarbonylamino)phenyl]acetyl]-(3S)-ethoxy-(2S)-pyrrolidinyl]-5-oxazolyl]propionic acid] was tested. Which Ki did it give?
Its Ki is 11 nM.

`CC(C)O[C@H]1C[C@@H](c2ncc(CCC(=O)O)s2)N(C(=O)Cc2cc(Cl)c(NC(=O)c3cn(C)c4ccccc34)cc2F)C1` [Example 35, 3-[2-[1-[5-Chloro-2-fluoro-4-(1-methyl-3-indolylcarbonyl)aminophenylacetyl]-(4S)-isopropoxy-(2S)-pyrrolidinyl]-5-thiazolyl]propionic acid] was tested. Which Ki did it give?
The Ki was 3 nM.

For `CO[C@H]1C[C@@H](c2ncc(CCC(=O)O)s2)N(C(=O)Cc2cc(Cl)c(NC(=O)c3coc4ccccc34)cc2Cl)C1` [Example 5, 3-[2-[1-[4-[(1-Benzofuran-3-ylcarbonyl)amino]-2,5-dichlorophenylacetyl]-(4S)-methoxy-(2S)-pyrrolidinyl]-5-thiazolyl]propionic acid], which Ki is on record?
Its Ki is 0.6 nM.

How did the Ki turn out when `CC(C)O[C@H]1C[C@@H](c2ncc(CCC(=O)O)s2)N(C(=O)Cc2cc(Cl)c(NC(=O)c3cn(C)c4ccccc34)cc2Cl)C1` [Example 34, 3-[2-[1-[2,5-Dichloro-4-(1-methyl-3-indolylcarbonylamino)phenylacetyl]-(4S)-isopropoxy-(2S)-pyrrolidinyl]-5-thiazolyl]propionic acid] was run?
The Ki was 5.1 nM.
